From article PMC9697349, “Mouse Pharmacokinetics and In Vitro Metabolism of SH-11037 and SH-11008, Synthetic Homoisoflavonoids for Retinal Neovascularization” (Pharmaceutics, 2022)

Columns and labels:
[1] = Metabolic stability of SH-11008 in human liver S9 fractions; type: in vitro ADME
Protocol: (§1) For studies using NADPH or PAPS as a cofactor, 4 μL of SH-11008 (40 μM) solution in 40 vol% CH3CN were mixed with 40 μL of 4 mg protein/mL HLS9 or MLS9 fractions diluted in 0.1 M potassium phosphate buffer (pH 7.4) and 100 μL of 0.1 M potassium phosphate buffer (pH 7.4). When using UDPGA as a cofactor, 32 μL of UGT Reaction Mix Solution B and 68 μL of de-ionized water were used instead of 100 μL of 0.1 M potassium phosphate buffer (pH 7.4). The mixture was warmed at 37 °C for 5 min. The reaction was then initiated by adding 16 μL of 10 mM cofactor dissolved in de-ionized water. The assay condition for UDPGA was used for metabolic stability studies conducted with a mixture of the three cofactors. The reaction was terminated at selected times by adding 160 μL of ice-cold CH3CN containing glipizide (500 ng/mL) as the IS. The resulting mixture was vortexed, sonicated, and centrifuged at 3000× g for 20 min. Aliquots of the supernatant were subjected to LC-MS/MS analysis described below in Section 2.6.2.
(§2) The LC-MS/MS system consisted of Agilent 1290 Infinity HPLC system and Agilent 6530 Accurate-Mass Quadrupole Time-of-Flight (Q-TOF) mass spectrometer equipped with dual AJS ESI ion source (Agilent Technologies Korea, Seoul, Korea). Chromatographic separation was performed on an Agilent Eclipse Plus C18 column (2.1 × 100 mm, 3.5 μm) with a Phenomenex Security Guard C18 guard column (4 × 20 mm) maintained at 40 °C. The mobile phase consisted of 0.1% formic acid in deionized water (A) and 0.1% formic acid in CH3CN (B): 0~2 min 5% B, 2~7 min to 95% B, and 7~10 min 95% B. Total run time including a 5 min equilibration time was 15 min. The flow rate was 0.4 mL/min. The injection volume was 5 µL. The mass spectrometer was operated in a positive Auto MS/MS scan mode with a full scan mass range of m/z 100–1000, fragmentor voltage 150 V, and CE 30 eV, selecting the two most intense precursor ions for collision-induced dissociation. Putative metabolites were identified using Agilent Mass Hunter Metabolite ID software (ver.B.04.00) followed by manual interpretation of the spectral data. Chromatograms and mass spectra were extracted using Agilent Mass Hunter Qualitative Analysis software (ver. B.05.00).
(§3) Pharmacokinetic parameters were calculated by noncompartmental analysis of plasma concentration versus time profiles using PKSolver. The scaling factors of mice and human, half-life (t1/2), intrinsic clearance (CLint), hepatic clearance (CLH), and hepatic extraction ratio (EH) were from the in vitro studies as described previously. […] The fraction of parent drug converted to the metabolite (fm) was calculated as follows:fm (%) = (AUC(m) × CL(m))/D × MWparent/MWmetabolite × 100,(1) where D is dose of the parent drug, AUC(m) is area under the curve for the metabolite after a dose of parent drug, CL(m) is CL of metabolite, and MW is molecular weight.

[2] = Metabolic stability of SH-11008 in mouse liver S9 fractions; type: in vitro ADME
Protocol: as §1, §2, §3

[3] = Stability of SH-11037 in 0.1 M phosphate buffer (pH 7.4); type: physicochemical
Protocol: SH-11037 (1 μM) was incubated in triplicate in 0.1 M phosphate buffer (pH 7.4) or in mouse, dog, and human plasma to investigate its stability. SH-11037 (40 μM) in 50 vol% aqueous CH3CN was mixed with 0.1 M phosphate buffer (pH 7.4) or plasma diluted 3-fold with 0.1 M phosphate buffer (pH 7.4) to a final volume of 160 μL and a final concentration of 1 μM. The resulting solutions were then incubated at 37 °C in a shaking water bath. The incubations were terminated at selected times by adding 160 µL of ice-cold CH3CN containing glipizide (500 ng/mL) as the internal standard (IS). The resulting mixture was vortexed, sonicated, and centrifuged at 3000× g for 20 min. Aliquots of the supernatant were subjected to LC-MS/MS analysis described below in Section 2.6.2.
The LC-MS/MS system consisted of Agilent 1290 Infinity HPLC system and Agilent 6530 Accurate-Mass Quadrupole Time-of-Flight (Q-TOF) mass spectrometer equipped with dual AJS ESI ion source (Agilent Technologies Korea, Seoul, Korea). Chromatographic separation was performed on an Agilent Eclipse Plus C18 column (2.1 × 100 mm, 3.5 μm) with a Phenomenex Security Guard C18 guard column (4 × 20 mm) maintained at 40 °C. The mobile phase consisted of 0.1% formic acid in deionized water (A) and 0.1% formic acid in CH3CN (B): 0~2 min 5% B, 2~7 min to 95% B, and 7~10 min 95% B. Total run time including a 5 min equilibration time was 15 min. […]

For `COc1ccc(CC2COc3cc(OC)c(OC)c(OC)c3C2=O)cc1O` (stereo not drawn) [SH-11008], which “metabolic stability in the presence of NADPH” value ([1]; HLS9, NADPH 1 mM only, 30 min) is on record?
Its value is “stable”.

And the half-life at 1 µM ([1]; human, liver S9 fractions, SH-11008 1 µM, HLS9 1 mg protein/mL, mixture of NADPH, UDPGA and PAPS (1 mM), 37 °C)?
The half-life at 1 µM was 0.6 min.

What about the EH ([1]; human, predicted hepatic extraction ratio from HLS9 data) of the same compound?
The EH was 0.99.

And the CLH ([1]; human, predicted with the well-stirred model from HLS9 data)?
Its CLH is 19.9 mL/min/kg.

And the CLint scaled at 1 µM ([1]; liver S9 fractions, human, scaled from in vitro t1/2 in HLS9)?
Its CLint scaled at 1 µM is 3580 mL/min/kg.

And the CLint scaled at 1 µM ([2]; CD-1, liver S9 fractions, pH 7.4, mouse, scaled from in vitro t1/2 in MLS9)?
Its CLint scaled at 1 µM is 1510 mL/min/kg.

What about the half-life at 1 µM ([2]; CD-1, mouse, liver S9 fractions, SH-11008 1 µM, MLS9 1 mg protein/mL, mixture of NADPH, UDPGA and PAPS (1 mM), 37 °C) of the same compound?
The half-life at 1 µM was 5.7 min.

And the “metabolic stability with cofactor added individually” value ([2]; MLS9, NADPH, UDPGA or PAPS 1 mM individually, 30 min)?
The value was “metabolized rapidly”.

And the EH ([2]; mouse, predicted hepatic extraction ratio from MLS9 data)?
The EH was 0.94.

What about the CLH ([2]; mouse, predicted with the well-stirred model from MLS9 data) of the same compound?
The CLH was 84.9 mL/min/kg.

Which results are given for `COc1ccc(CC2COc3cc(OC)c(OC)c(OC)c3C2=O)cc1OC(=O)[C@H](Cc1ccccc1)NC(=O)OC(C)(C)C` (stereo partly drawn) [SH-11037]?
SH-11037 remaining ([3]; 1 µM, 0.1 M phosphate buffer pH 7.4, 1 h incubation at 37 °C): ~100%; SH-11008 formation in buffer ([3]; SH-11037 1 µM, pH 7.4 buffer, 1 h at 37 °C): not detected
